According to publication PMC3901259, “Characterisation of the Metabolites of 1,8-Cineole Transferred into Human Milk: Concentrations and Ratio of Enantiomers” (Metabolites, 2013):

How the values were obtained:
[1] = Quantification of 1,8-cineole metabolites in human milk (SAFE, GC-MS, internal standard and matrix calibration) after oral intake of 100 mg 1,8-cineole; type: in vivo; details: for Absolute concentration in human milk: single determination
How it was run: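 Lactating mothers took one capsule with 100 mg 1,8-cineole orally; milk expressed after eucalyptus odour noticed on breath (14 samples, 8 donors). Volatiles isolated by SAFE at 50 °C with deuterated 1,8-cineole internal standard, concentrated, and quantified by GC-MS on DB-FFAP and DB-5 columns; chiral columns for enantiomer ratios.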

[2] = parameters: method as in PMID 20425757; details: one volunteer, sage tea, overall intake 1.02 mg 1,8-cineole; cited from earlier work

Compound: CC1(C)OC2(C)CCC1CC2O (stereo not drawn) [a2-hydroxy-1,8-cineole, α2-hydroxy-1,8-cineole]
- Concentration range in human milk (abstract/conclusions) ([1]; after oral 100 mg 1,8-cineole, rounded summary): 100 to 250 µg/kg
- Share of the metabolites on average ([1]; human milk, roughly estimated): about 70%
- Estimated maximum level in human milk (concentration calculated with the last calibration point, in parentheses) ([1]; sample A-1a (no odour)): < 1.37 µg/kg
- Absolute concentration in human milk ([1]; sample A-1a (no odour), oral 100 mg 1,8-cineole, values given with (<x) lie beyond calibration range, approximation): 0.65 µg/kg
- Absolute concentration in human milk ([1]; sample A-1b (odour yes), oral 100 mg 1,8-cineole, values given with (<x) are approximations): 138.10 µg/kg
- Absolute concentration in human milk ([1]; sample B-1 (odour yes), oral 100 mg 1,8-cineole, values given with (<x) are approximations): 176.30 µg/kg
- Absolute concentration in human milk ([1]; sample B-2a (no odour), oral 100 mg 1,8-cineole): 0.61 µg/kg
- Absolute concentration in human milk ([1]; sample B-2b (odour yes), oral 100 mg 1,8-cineole, values given with (<x) are approximations): 113.55 µg/kg
- Absolute concentration in human milk ([1]; sample B-2c (no odour), oral 100 mg 1,8-cineole): 29.25 µg/kg
- Absolute concentration in human milk ([1]; sample C (no odour; very weak odour not caused by 1,8-cineole), oral 100 mg 1,8-cineole, values given with (<x) are approximations): 7.68 µg/kg
- Absolute concentration in human milk ([1]; sample D-1 (no odour), oral 100 mg 1,8-cineole, values given with (<x) are approximations): 15.08 µg/kg
- Absolute concentration in human milk ([1]; sample D-2 (odour yes), oral 100 mg 1,8-cineole, values given with (<x) are approximations): 135.98 µg/kg
- Absolute concentration in human milk ([1]; sample E-1 (no odour), oral 100 mg 1,8-cineole, values given with (<x) are approximations): 2.02 µg/kg
- Absolute concentration in human milk ([1]; sample E-2 (odour yes), oral 100 mg 1,8-cineole, values given with (<x) are approximations): 233.31 µg/kg
- Absolute concentration in human milk ([1]; sample F (no odour), parent ingested two capsules, values given with (<x) are approximations): 3.16 µg/kg
- Absolute concentration in human milk ([1]; sample G (odour yes), oral 100 mg 1,8-cineole, values given with (<x) are approximations): 98.83 µg/kg
- Absolute concentration in human milk ([1]; sample H (odour yes), oral 100 mg 1,8-cineole, values given with (<x) are approximations): 206.09 µg/kg
- Concentration range in human milk samples ([1]; seven positive samples (eucalyptus-like odour), Figure 2): 99 to 233 µg/kg
- Concentration in plasma [2]: 14.62 ng/mL
